# According to patent publication US8268888B2, “Therapy of malignant neoplasias” (priority 2005, dated 2012):
# Like-named read-outs stand apart in the source and are kept apart here.
# How the values were obtained:
# [1] = rat, in vivo; cited from earlier work
# malignant cell lines = assay: Cell survival rate after treatment with 3/4-iodo-L-phenylalanine (cytotoxic/cytostatic effect); assay type: cell-based, human
# Protocol: Five human glioma cell lines, one rat glioma cell line, two human prostate cancer cell lines, as well as one human breast cancer cell line, and a melanoma cell line were investigated. The human glioma cell lines Tx 3868 and T 5135 (from primary human glioblastoma multiforme), and the rat C6 glioma cells were provided by the Institute of Human Genetics, University of the Saarland (Homburg, Germany). The human high-grade glioma cells, designated as A1207, M059K and U373MG, the human prostate cancer cells PC3 and […], the pancreatic carcinoma cell line PanC1, the human breast cancer cell line MCF-07 (American Type Culture Collection, Rockville, Md.), and the pancreatic carcinoma cell line PaCa44 (established by Dr Bulow, Mainz, Germany) as well as the melanoma cell lines SK-MEL25 and A101D were purchased commercially or provided by the oncological research laboratory of the University Medical Center of Saarland (Homburg, Germany). […]
# Human tumor cells grown on standard glass slides were fixed in 4% neutral buffered formalin and stained with the Giemsa method. The cell number was calculated in 10 consecutive high power fields (×40).
# human tumor cells = assay: Internalisation (uptake) experiments in tumor cells; assay type: cell-based
# Protocol: Uptake experiments were undertaken to evaluate the affinity of the proposed L-phenylalanine derivatives for the proposed human tumors, and to assess their therapeutic activity in vitro. All experiments were performed fourfold, simultaneously with 250000, 500000 and 10^6 freshly prepared human tumor cells, including human malignant glioma cells, pancreatic prostatic and breast cancer cells. Before experiments, subconfluent cells were trypsinized as described above. The suspension was mixed thoroughly, transferred to a 50-ml centrifuge tube (Falcon®, Becton Dickinson, USA). Cells were centrifuged for 5 min at 200×g; the resulting supernatant was removed and the pellet resuspended in serum-free Dulbecco's Mod Eagle medium and then transferred to Eppendorf tubes at concentrations of 10^6 cells/ml for the uptake investigations. Before incubation with the corresponding radiolabeled phenylalanine, the tumor cells were preincubated for 5 min in 500 μL medium at 37° C. in 1.5-ml Eppendorf centrifuge tubes. Aliquots of 30-50 μL (10^6−1.5×10^6 cpm) freshly prepared radiopharmaceutical were added and cells incubated at 37° C./5% CO2 for 1, 2, 5, 15, 30, 60, 90 and 120 min while shaking. Uptake was stopped with 500 μL ice-cold PBS (pH 7.4) and an additional 3-min in an ice bath, the cells were centrifuged for 2 min at 300×g, the supernatant removed and the pellet washed three time with ice-cold PBS. Cell pellets were counted for radioactivity together with 3 aliquots of standards on a Berthold LB951 counter. The percentage of binding of the radiopharmaceutical was calculated by the formula: (cpm cell pellet/mean cpm radioactive standards)×100. The results were expressed either as percent of the applied dose per 10^6 cells or as cpm/1000 cells for better comparison.
# [2] = system: human Tx3868 glioblastoma cells; assay: Radiosensitizing effect: IPA combined with external irradiation in glioblastoma cells; assay type: cell-based; conditions: for radiosensitizer effect: concomitantly administered therapeutic radiation
# Protocol: Five human glioma cell lines, one rat glioma cell line, two human prostate cancer cell lines, as well as one human breast cancer cell line, and a melanoma cell line were investigated. The human glioma cell lines Tx 3868 and T 5135 (from primary human glioblastoma multiforme), and the rat C6 glioma cells were provided by the Institute of Human Genetics, University of the Saarland (Homburg, Germany). The human high-grade glioma cells, designated as A1207, M059K and U373MG, the human prostate cancer cells PC3 and […], the pancreatic carcinoma cell line PanC1, the human breast cancer cell line MCF-07 (American Type Culture Collection, Rockville, Md.), and the pancreatic carcinoma cell line PaCa44 (established by Dr Bulow, Mainz, Germany) as well as the melanoma cell lines SK-MEL25 and A101D were purchased commercially or provided by the oncological research laboratory of the University Medical Center of Saarland (Homburg, Germany). Cells were cultivated in RPMI-1640 medium or in Dulbecco's modified Eagle medium (sodium pyruvate-free, supplemented with […] and pyridoxine), respectively, supplemented with 10% (v/v) heat-inactivated foetal calf serum (FCS), penicillin (50 U/ml), streptomycin (50 μg/ml), and insulin (50 μg/ml; PromoCell, Heidelberg, Germany). All cell lines were maintained in appropriate flasks in a humidified incubator (5% CO2) at 37° C. Before the experiment, subconfluent cell cultures were trypsinized with a solution of 0.05% trypsin containing 0.02% EDTA but without Ca^2+ and Mg^2+, and resuspended in fresh medium to various cell concentrations after counting by vital staining on a hemocytometer, depending upon the study. Cells were free of mycoplasms. Viability of the cells was >95%.
# Evaluation of the cell survival rate after treatment with 3/4-iodo-L-phenylalanine. After development of a confluent lawn of cells, the cultures were exposed to 0.1-5 μmol/ml of the corresponding pharmaceutical for up to 48 hours at 37° C./5% CO2. In a parallel experiment, cells were irradiated using a 6-MeV linear accelerator with doses from 2 to 15 Gy or treated with IPA-131 for comparison of cell survival rate. In order to be able to observe the morphology of the glioma cells, the cells were grown on standard glass slides or in standard culture dishes. Then the medium was removed and the cells were fixed either in 70% ethanol for at least 30 min on ice for flow-cytometric analyses after staining or in 4% neutral buffered formalin for immunohistopathological analyse.
# [3] = system: human A1207 and T3868 glioblastoma xenografts; assay: Intracranial human glioma model in RNU rats (survival); assay type: in vivo; conditions: daily in first week then weekly, n=9
# Protocol: An in vivo experiment was carried out in an intracranial human glioma model in RNU rats to assess the therapeutic effectiveness of 4-Iodo-L-phenylalanine (IPA) in glioma.
# Primary human A1207 and T3868 glioblastoma cells (0.5×10^6 cells) were stereotaxically implanted into the right frontal region of RNU rats (2 mm posterior and 2 mm lateral to the intersection of the sagittal and bregma sutures to a depth of 5 mm) while under chloralhydrate anesthesia. The craniectomy was resealed with bone wax and the scalp closed.
# IPA (1 and 5 mg/kg b.w.) was administrated i.p. in rats bearing human glioblastoma xenografts (n=9 in each group), starting at day 1 after stereotaxic implantation.
# IPA was administrated daily in the first week after implantation and weekly afterwards. Another six RNU rats were treated with saline and served as control.
# Then the following parameters were compared: median survival time, tumor size and histology after biopsy.
# [4] = Acute toxicity (LD50/LD10) in rats; conditions: i.p. injection
# [5] = rats, cited from earlier work
# malignant gliomas = conditions: cited from earlier work
compound,measurement,setting,value
N[C@@H](Cc1ccc(Cl)cc1)C(=O)O (racemic) [p-chloro-phenylalanine],effect on growth of developing rats,[1],interferes with the growth of developing rats
"N[C@@H](Cc1ccccc1I)C(=O)O [2-iodo-L-phenylalanine, reference compound]",cytotoxicity in neoplastic cells,malignant cell lines; compared with IPA and IMA,moderate cytotoxity
same,uptake in neoplastic cells,human tumor cells; compared with IPA and IMA,low uptake
N[C@@H](Cc1cccc(I)c1)C(=O)O [3-iodo-L-phenylalanine],radiosensitizer effect,[2],significant intrinsic radiosensitizer effect
"N[C@@H](Cc1ccc(I)cc1)C(=O)O [IPA, 4-iodo-L-phenylalanine]",rats still alive at day 28,[3]; IPA 1 mg/kg i.p.,six out of nine
same,rats still alive at day 28,[3]; IPA 5 mg/kg i.p.,seven out of nine
same,LD10,[4],> 27 mg/kg
same,cytostatic effect on primary human glioblastoma cells,"malignant cell lines; FIG. 4, compared with external irradiation",concentration dependent and more pronounced as compared to external irradiation up to 15 Gy
same,LD50,[5]; route not stated,> 100 mg/kg
same,uptake in human tumor cells,"human tumor cells; quantified with 4-[123I]iodo-L-phenylalanine, up to 120 min, FIGS. 1-3",high uptake
same,concentration up to which transport capacity did not show saturation,human tumor cells; tumor cells,> 200 µmol/L
same,induction of necrosis/apoptosis,"[2]; 0.3 μmol/ml IPA with 10 Gy external radiation, FIG. 7b",increased induction of necrosis and additional induction of apoptosis
same,radiosensitizer effect,[2],significant intrinsic radiosensitizer effect
same,cell survival rate on combining with external irradiation,"[2]; glioma cells, FIGS. 4-6",dramatic reduction of cell survival rate
"N[C@@H](Cc1ccc([123I])cc1)C(=O)O [IPA-123, 4-[^123I]iodo-L-phenylalanine]",blood-brain barrier passage,malignant gliomas; after intravenous administration,crosses
same,enrichment in certain tumors (factor),malignant gliomas; certain tumors,≥ 20
"N[C@@H](Cc1ccccc1)C(=O)O [L-phenylalanine, reference compound]",LD50,"[5]; i.p. injection, according to the manufacturer",5280 mg/kg
